This note sets out measurements from EPA's ToxValDB 9.5 (doi:10.2903/j.efsa.2010.1897).

In brackets after ≈: the same amount, converted by molar mass. Several values for one entry are separate records, joined by “and”; a condition that tells them apart may be missing. Equal entries are not always repeated.

One series relates to Anas platyrhynchos. The following applies: for LC50: short-term, feed.
In a further series the test system is Colinus virginianus. The following applies: for LC50: diet.
In another series the test system is Typhlodromus pyri. Briefly: LR50; higher = less toxic. The following applies: not reported; mortality.
Another series deals with Coturnix japonica. The following applies: acute; oral; mortality.
The next series has as its system Folsomia candida. The following applies: chronic/long-term; duration: 28 days; reproduction.
Another series has as its system Daphnia magna. The following applies: chronic/long-term; duration: 21 days.
In another series the test system is Apis mellifera. The settings on record: acute; duration: 48 hours; oral; unspecified; mortality.
Another series relates to Cyprinodon variegatus. The settings on record: acute; duration: 96 hours; mortality.
Another series relates to Tagia sp. The following applies: acute; duration: 14 days; mortality.

What is called NOAEL is the highest tested level that showed no adverse finding. Regarding `NC(Cc1ncn[nH]1)C(=O)O` (stereo not drawn) [1,2,4-Triazole-3-alanine], the LC50 in the series with Anas platyrhynchos (oral, mortality) is more than 1340 mg/kg-day; in the series with Colinus virginianus (acute, oral, mortality), more than 1400 mg/kg-day. This compound also returned an NOAEL with Rattus norvegicus (developmental, development) of 100 mg/kg-day.

The compound `CC(C1CC1)C(O)(Cn1cncn1)c1ccc(Cl)cc1` (stereo not drawn) [Cyproconazole] displayed an LR50 in the series on Typhlodromus pyri of 29.4 g/ha. The LD50 was 130 mg/kg-day in the series with Coturnix japonica; 200 mg/kg-day in the series with Mus musculus (acute, oral, mortality); more than 100 µg/piece in the series with Apis mellifera; more than 2000 mg/kg-day in the series on Anas platyrhynchos (acute, oral, unspecified, mortality); 94 mg/kg-day and 183 mg/kg-day with Colinus virginianus (acute, oral, mortality). The NOAEL with Mus musculus (chronic, duration: 18 months, body weight) is 1.84 mg/kg-day; in the series on Rattus norvegicus (chronic, duration: 2 years, M/F, body weight), 2.22 mg/kg-day; in the series with Rattus norvegicus (reproduction developmental, F, reproduction), 1.7 mg/kg-day; in the series with Rattus norvegicus (reproduction developmental, M, organ weight) it was 1.4 mg/kg-day. The NOEC in the series on Folsomia candida is 55.8 mg/kg; in the series with Oncorhynchus mykiss (chronic/long-term, duration: 89 days, growth), 0.16 mg/L; in the series with Daphnia magna it was 0.023 mg/L; with Anas platyrhynchos (reproductive), 1.4 mg/kg-day and 2.4 mg/kg-day; in the series with Colinus virginianus (reproduction developmental) it was 6.6 mg/kg-day. The LC50 with Oncorhynchus mykiss (acute, duration: 96 hours, mortality) is 19 µg/mL (≈ 65.1 µM); in the series on Cyprinodon variegatus it was 21 µg/mL (≈ 72 µM); in the series on Anas platyrhynchos (oral, mortality), 151 mg/kg-day; with Colinus virginianus (acute, oral, mortality), 478 mg/kg-day and 585 mg/kg-day; in the series on Tagia sp., more than 335 mg/kg.
